Measurements reported in ChEMBL document CHEMBL3832058, “DailyMed|setid=78f196d4-110e-45b1-813a-725f52c1a4eb | OXCARBAZEPINE -oxcarbazepine tablet, film coated|Bryant Ranch Prepack”.

Tested on: Homo sapiens
Assay: Pharmacokinetic parameters for Oxcarbazepine and its active metabolite, 10-Monohydroxy Carbazepine evaluated after oral administration of Oxcarbazepine tablets.
Type: ADME, organism-based
Conditions: in vivo, dosed compound id 11, dosed compound name OXCARBAZEPINE; for Excretion: tissue Urine

SMILES | Tmax (dietary status Fasting, gender male, regimen Single dose, tissue Plasma) [h] | t1/2 (dose 300 mg, regimen Single dose, tissue Plasma) [h] | Vd(app) (tissue Plasma) [L] | t1/2 (tissue Plasma) [h] | Excretion [%]
NC(=O)N1c2ccccc2CC(O)c2ccccc21 (configuration not stated) [LICARBAZEPINE] | 4.5 | 19 | 49 | 9 | 49
NC(=O)N1c2ccccc2CC(=O)c2ccccc21 [OXCARBAZEPINE] |  |  |  | 2 | 27
